Test: DPPH radical scavenging antioxidant test (in vitro)
Assay type: biochemical
Settings: 517 nm; for Inhibition (radical scavenging inhibition): 0.2 mL DPPH (0.75 mM), compound 3 μM in ethanol, 30 minutes incubation in the dark
Procedure: The antioxidant properties of the 8-(3-flurobenzylideneamino)naphthalene-1,3-disulfonic acid compound were studied by adding 0.2 mL DPPH (0.75 mM)) 8-(3-flurobenzylideneamino)naphthalene-1,3-disulfonic acid (III) (3 μM) in ethanol. After 30 minutes of incubation in the dark, the absorbance was read against a blank at 517 nm. Ascorbic acid (vitamin C) was used as standard antioxidants (positive control). A blank sample was prepared by 0.2 ml of DPPH in 3 mL ethanol. A negative control sample was run using ethanol instead of the sample. The radical scavenging inhibition was calculated using the following equation: […]
The antioxidant activity for the synthesized compound is listed in Table 1, using Vitamin C as a reference.

## O=C1O[C@H]([C@@H](O)CO)C(O)=C1O [vit c, Ascorbic acid, reference compound]
  Inhibition (radical scavenging inhibition): 74%

## O=S(=O)(O)c1cc(S(=O)(=O)O)c2c(/N=C/c3cccc(F)c3)cccc2c1 [Product III, 8-(3-flurobenzylideneamino)naphthalene-1,3-disulfonic acid]
  Inhibition (radical scavenging inhibition): 52%
DPPH in vitro test, vitamin C as positive control
  antioxidant potential in DPPH test compared to vitamin C (in words): high potential as an antioxidant compared to vitamin C

— patent publication US11945768B1, “8-(3-flurobenzylideneamino)naphthalene-1,3-disulfonic acid as an antioxidant compound” (KING FAISAL UNIVERSITY, priority 2023, dated 2024)
